Data taken from publication PMC6522510 (Nature Communications, 2019).
pEC50: −log10 of the molar value. Where two headings read alike, the source gives them in different places.

Key:
MV4-11 [1] = assay: cells; design: species or system AML cell lines (8); Secondary HTS, 10-point dose-response in triplicate, Cell Titer Glo viability, four-parameter fit EC50; details: Homo sapiens, MV4-11, 72 h, read-out: MV4-11
MOLM-13 [2] = assay: cells; design: species or system AML cell lines (8); Secondary HTS, 10-point dose-response in triplicate, Cell Titer Glo viability, four-parameter fit EC50; details: Homo sapiens, MOLM-13, 72 h, read-out: MOLM-13
CMK = assay: Secondary dose-response HTS, Cell Titer Glo; assay type: cell-based, human; details: CMK; for pEC50: Homo sapiens, read-out: average effective concentration, CMK
MV4-11 [3] = assay: Secondary dose-response HTS, Cell Titer Glo; assay type: cell-based, human; details: secondary high-throughput screen, MV4-11; for pEC50: Homo sapiens, read-out: average effective concentration, MV4-11
ML2 = assay: Secondary dose-response HTS, Cell Titer Glo; assay type: cell-based, human; details: secondary high-throughput screen, ML-2; for pEC50: Homo sapiens, read-out: average effective concentration, ML-2
MOLM-13 [4] = assay: Secondary dose-response HTS, Cell Titer Glo; assay type: cell-based, human; details: secondary high-throughput screen, MOLM-13; for pEC50: Homo sapiens, read-out: average effective concentration, MOLM-13
CHRF288-11 [5] = assay: Secondary dose-response HTS, Cell Titer Glo; assay type: cell-based, human; details: secondary high-throughput screen, CHRF288-11; for pEC50: Homo sapiens, HTS, read-out: average effective concentration, CHRF288-11
CMS = assay: cells; design: species or system AML cell lines (8); Secondary HTS, 10-point dose-response in triplicate, Cell Titer Glo viability, four-parameter fit EC50; details: 72 h, read-out: CMS
M07e = assay: cells; design: species or system AML cell lines (8); Secondary HTS, 10-point dose-response in triplicate, Cell Titer Glo viability, four-parameter fit EC50; details: M-07e, 72 h, read-out: M07e
U937 [6] = assay: Secondary dose-response HTS, Cell Titer Glo; assay type: cell-based, human; details: secondary high-throughput screen, U937; for pEC50: Homo sapiens, U-937, read-out: average effective concentration, U937
CHRF288-11 [7] = assay: cells; design: species or system AML cell lines (8); Secondary HTS, 10-point dose-response in triplicate, Cell Titer Glo viability, four-parameter fit EC50; details: 72 h, read-out: CHRF288-11
U937 [8] = assay: cells; design: species or system AML cell lines (8); Secondary HTS, 10-point dose-response in triplicate, Cell Titer Glo viability, four-parameter fit EC50; details: Homo sapiens, U-937, 72 h, read-out: U937
[9] = secondary high-throughput screen

SMILES | average effective concentration, MV4-11 (MV4-11 [3]) | average effective concentration, MOLM-13 (MOLM-13 [4]) | pEC50 (CMK; [9]) | pEC50 (MV4-11 [3]) | pEC50 (CMS) | pEC50 (M07e) | pEC50 (ML2) | pEC50 (MOLM-13 [4]) | pEC50 (CHRF288-11 [7]) | other results
O=C(CCCCCN1C(=O)c2cccc3cccc(c23)C1=O)NO | – | – | – | – | – | – | – | – | – | pEC50 (MV4-11 [1]): < 5.00; pEC50 (MOLM-13 [2]): < 5.00
N#C/C(=C\c1ccc(-c2cc(Cl)ccc2Cl)o1)C(=O)Nc1cccc2ncccc12 [AGK 2] | Inactive | Inactive | – | – | – | – | – | – | – | average effective concentration, CMK (CMK; [9]): Inactive; average effective concentration, ML-2 (ML2): Inactive; average effective concentration, CHRF288-11 (CHRF288-11 [5]): Inactive
COc1cc(N2CCC(N3CCN(C)CC3)CC2)ccc1Nc1ncc(Cl)c(Nc2ccccc2P(C)(C)=O)n1 [AP26113] | – | – | 5.19 | 6.22 | < 5.00 | < 5.00 | 5.40 | 6.59 | – | pEC50 (U937 [6]): 5.11; pEC50 (CHRF288-11 [5]): 5.22
COc1cc(N2CCC(N3CCN(C)CC3)CC2)ccc1Nc1ncnc(Nc2ccccc2S(=O)(=O)C(C)C)n1 [ASP3026] | – | – | 5.02 | < 5.00 | < 5.00 | < 5.00 | < 5.00 | 5.10 | < 5.00 | pEC50 (U937 [8]): < 5.00
C[C@@]1(C(=O)Nc2ccc(F)nc2)CCCN1c1nc(Nc2cc(C3CC3)n[nH]2)c2cccn2n1 [BMS-754807] | – | – | 5.70 | 5.00 | < 5.00 | < 5.00 | 5.70 | 5.08 | < 5.00 | pEC50 (U937 [8]): < 5.00
CC(C)C[C@H](NC(=O)[C@H](Cc1ccccc1)NC(=O)c1cnccn1)B(O)O [Bortezomib] | – | – | – | – | – | – | – | – | 8.68 | –
C=CC(=O)Nc1cccc(Nc2nc(Nc3ccc(OCCOC)cc3)ncc2F)c1 [CC-292 (AVL-292)] | Inactive | Inactive | – | – | – | – | – | – | – | average effective concentration, CHRF288-11 (CHRF288-11 [5]): Inactive
CS(=O)(=O)N1CCc2c(-c3cnc(N)nc3)nc(N3CCOCC3)nc21 [CH-5132799] | – | – | 5.82 | 5.41 | < 5.00 | < 5.00 | 5.16 | 5.60 | – | pEC50 (U937 [6]): 5.40; pEC50 (CHRF288-11 [5]): 5.03
Br.Cc1cc2nc(NCCCO)n(CC(=O)c3cc(C(C)(C)C)c(O)c(C(C)(C)C)c3)c2cc1C [CID-2858522] | Inactive | Inactive | – | – | – | – | – | – | – | average effective concentration, CMK (CMK; [9]): Inactive; average effective concentration, CHRF288-11 (CHRF288-11 [5]): Inactive
COc1cc2ncnc(-n3nc(-c4ccccn4)nc3N)c2cc1OC [CP-466722] | Inactive | Inactive | – | – | – | – | – | – | – | average effective concentration, CMK (CMK; [9]): Inactive; average effective concentration, ML-2 (ML2): Inactive; average effective concentration, U937 (U937 [6]): Inactive; average effective concentration, CHRF288-11 (CHRF288-11 [5]): Inactive
CO[C@@H](C(=O)N1Cc2n[nH]c(NC(=O)c3ccc(N4CCN(C)CC4)cc3)c2C1)c1ccccc1 [DANUSERTIB] | – | – | – | 6.32 | < 5.00 | < 5.00 | 6.21 | 5.85 | < 5.00 | pEC50 (CMK): < 5.00; pEC50 (U937 [6]): 5.42
Cc1cc(Cl)ccc1OCCCC(=O)NO [DROXINOSTAT] | Inactive | Inactive | – | – | – | – | – | – | – | average effective concentration, CMK (CMK; [9]): Inactive; average effective concentration, ML-2 (ML2): Inactive; average effective concentration, U937 (U937 [6]): Inactive
CN1c2ccccc2C(=O)N2CCc3c([nH]c4ccccc34)[C@H]21 [EVODIAMINE] | – | – | – | – | – | – | – | – | < 5.00 | pEC50 (MV4-11 [1]): < 5.00; pEC50 (MOLM-13 [2]): < 5.00
CN(C)C1CCN(C(=O)c2ccc(NC(=O)Nc3ccc(-c4nc(N5CCOCC5)nc(N5CCOCC5)n4)cc3)cc2)CC1 [Gedatolisib] | – | – | 5.11 | 7.33 | – | – | – | 6.72 | – | pEC50 (U937 [6]): 7.62
CN(Cc1cnc2nc(N)nc(N)c2n1)c1ccc(C(=O)N[C@@H](CCC(=O)O)C(=O)O)cc1 [METHOTREXATE] | – | – | 8.35 | – | < 5.00 | < 5.00 | 9.00 | < 5.00 | – | pEC50 (MV4-11 [1]): < 5.00; pEC50 (U937 [8]): < 5.00; pEC50 (CHRF288-11 [5]): 9.00
